Experimental findings from ChEMBL document CHEMBL1128712, “Increasing binding constants of ligands to carbonic anhydrase by using "greasy tails"” (J Med Chem, 1995) are described below.

Data set [1] in a line: Partition coefficient (logD7.5). As to conditions: octanol/water, pH 7.5. The class given is physicochemical.
The target of data set [2] is Carbonic anhydrase 2 (Bos taurus) (UniProt P00921). The experiment in a line: Evaluation of binding constant to bovine carbonic anhydrase II, measured by fluorescence in 20 mM phosphate buffer (pH=7.5).
For data set [3] the target is unchanged. The experiment in a line: Compound was tested for the binding affinity towards Carbonic anhydrase II by competitive fluorescence assay with dansylamide.
Data set [4] is described as follows: Evaluation of ionization constant between octanol and 20 mM phosphate buffer (pH =7.5). As to conditions: octanol/20 mM phosphate buffer. The class given is physicochemical.

Carbonic anhydrase 2 (Bos taurus), sequence (P00921 2-260 limits assumed): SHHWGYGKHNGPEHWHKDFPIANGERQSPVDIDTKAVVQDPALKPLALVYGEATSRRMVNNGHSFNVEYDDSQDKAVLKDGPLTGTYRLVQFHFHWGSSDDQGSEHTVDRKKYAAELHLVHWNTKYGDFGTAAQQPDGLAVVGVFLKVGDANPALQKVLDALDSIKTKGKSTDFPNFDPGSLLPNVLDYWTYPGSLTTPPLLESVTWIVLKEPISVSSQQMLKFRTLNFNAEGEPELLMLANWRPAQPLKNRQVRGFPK

The molecule `CCCCCC(=O)NCc1ccc(S(N)(=O)=O)cc1` showed a logD in data set [1] of 1.23. The Kb in data set [2] is 5.1e+06 M⁻¹.

On to `CCC(CC)C(=O)NCc1ccc(S(N)(=O)=O)cc1`, for which the logD in data set [1] was found to be 1. The molecule further showed a Kb in data set [2] of 2.9e+06 M⁻¹.

Turning to `CCCCCCCC(=O)NCc1ccc(S(N)(=O)=O)cc1`, the logD in data set [1] was 1.84. The molecule also yielded a Kb in data set [3] of 1.2e+07 M⁻¹.

In data set [1], `NS(=O)(=O)c1ccc(CNC(=O)CC2CCCC2)cc1` had a logD of 1.08. The Kb in data set [2] is 7.6e+06 M⁻¹.

Consider `CC(C)(C)CC(=O)NCc1ccc(S(N)(=O)=O)cc1`, for which the logD in data set [1] is 1.04. Besides, the Kb in data set [2] worked out at 7.1e+06 M⁻¹.

As for `NS(=O)(=O)c1ccc(C(=O)NCC(F)(F)C(F)(F)C(F)(F)F)cc1`, the logD in data set [1] is 2.04. The molecule further returned a Kb in data set [2] of 1.1e+09 M⁻¹.

For the molecule `NS(=O)(=O)c1ccc(CNC(=O)C2CCCCCC2)cc1`, in data set [1], the pH-dependent lipophilicity (logD) was 1.49. In data set [2], this molecule gave a Kb of 1e+07 M⁻¹.

Turning to `NS(=O)(=O)c1ccc(CNC(=O)C2CCCCC2)cc1`, in data set [1], the log distribution coefficient (logD) is 1.08. In data set [2], the Kb came to 7.6e+06 M⁻¹.

Regarding `CCC(=O)NCc1ccc(S(N)(=O)=O)cc1`, in data set [4], the pKa amounted to 9.9.

In the case of `CN(C)C(=O)c1ccc(S(N)(=O)=O)cc1`, the logD in data set [1] was 0.146. This molecule returned a Kb in data set [2] of 1.1e+07 M⁻¹.

In data set [4], `NS(=O)(=O)c1ccc(CNC(=O)C(F)(F)C(F)(F)F)cc1` gave a pKa of 9.8.

Take `CCN(CC)C(=O)c1ccc(S(N)(=O)=O)cc1`: in data set [1], the logD was 0.929. Besides, the Kb in data set [2] stood at 1.7e+07 M⁻¹.

For `CCNC(=O)c1ccc(S(N)(=O)=O)cc1`, the logD in data set [1] was 0.176. In addition, the Kb in data set [2] turned out to be 5.9e+06 M⁻¹.

With `CCCN(CCC)C(=O)c1ccc(S(N)(=O)=O)cc1`, the logD in data set [1] was 2.08. This molecule yielded a Kb in data set [2] of 1.9e+07 M⁻¹.

In the case of `CCCCNC(=O)c1ccc(S(N)(=O)=O)cc1`, the logD in data set [1] was 1.11. In data set [2], this molecule gave a Kb of 6.3e+07 M⁻¹.

`NS(=O)(=O)c1ccc(CNC(=O)CC2CCCCC2)cc1` gave a logD in data set [1] of 1.62. The Kb in data set [2] was 1.3e+07 M⁻¹.

In turn, `NS(=O)(=O)c1ccc(C(=O)NCC(F)(F)F)cc1` had a logD in data set [1] of 0.845. Also, the Kb in data set [2] is 4.7e+07 M⁻¹.

As to `CCCCC(CC)C(=O)NCc1ccc(S(N)(=O)=O)cc1` (centres undefined), in data set [1], the logD was 1.84. This molecule yielded a Kb in data set [2] of 7.1e+06 M⁻¹.

With `CC(C)CCC(=O)NCc1ccc(S(N)(=O)=O)cc1`, the pH-dependent lipophilicity (logD) in data set [1] was 1.04. In addition, in data set [2], the Kb was 4.8e+06 M⁻¹.

For `NS(=O)(=O)c1ccc(CNC(=O)CCC2CCCC2)cc1`, in data set [1], the logD is 1.63. This molecule also displayed a Kb in data set [2] of 1.2e+07 M⁻¹.

Take `NS(=O)(=O)c1ccc(CNC(=O)C(F)(F)F)cc1`: in data set [4], the pKa worked out at 10.1.

`NS(=O)(=O)c1ccc(CNC(=O)C2CCCC2)cc1` showed a logD in data set [1] of 0.778. The same molecule showed a Kb in data set [2] of 6e+06 M⁻¹.

With `NS(=O)(=O)c1ccc(C(=O)NCC(F)(F)C(F)(F)F)cc1`, the logD in data set [1] is 1.52. For the same molecule, the Kb in data set [2] is 1.8e+08 M⁻¹.

In data set [1], `CC1(C)C(C(=O)NCc2ccc(S(N)(=O)=O)cc2)C1(C)C` gave a logD of 1.57. This molecule gave a Kb in data set [2] of 1.1e+07 M⁻¹.

Consider `CCCNC(=O)c1ccc(S(N)(=O)=O)cc1`, for which the logD in data set [1] is 0.531. The molecule further yielded a Kb in data set [2] of 2.6e+07 M⁻¹.

As to `CCCC(C)CC(=O)NCc1ccc(S(N)(=O)=O)cc1` (centres undefined), the log distribution coefficient (logD) in data set [1] is 1.32. The molecule further returned a Kb in data set [2] of 5.7e+06 M⁻¹.

Turning to `CCCCCCC(=O)NCc1ccc(S(N)(=O)=O)cc1`, in data set [1], the pH-dependent lipophilicity (logD) is 1.46. In data set [2], this molecule registered a Kb of 5.7e+06 M⁻¹.

For `CC(=O)NCc1ccc(S(N)(=O)=O)cc1`, the pKa in data set [4] is 10.2.

On to `CCCCCCNC(=O)c1ccc(S(N)(=O)=O)cc1`, for which the logD in data set [1] was 2.21. Also, in data set [2], the Kb is 1.3e+08 M⁻¹.
